Reference: patent publication US7932270B2 (Cytokinetics, Inc., priority 2006, dated 2011)
pIC50: −log10 of the molar value.

molecular target: T1, chicken gizzard smooth muscle myosin subfragment-1 chemically crosslinked to cardiac or skeletal actin (Gallus gallus, UniProt P10587); assay: Smooth muscle myosin ATPase dose response assay (pyruvate kinase/horseradish peroxidase/pyruvate oxidase-coupled, amplex red fluorescence); type: biochemical; details: read-out: IC50 Arithmetic Mean
T1 construct: chicken gizzard smooth muscle myosin subfragment-1; from tissue; host or cells: chicken gizzard
In short: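 Lead-optimization format: ATPase coupled via pyruvate kinase, pyruvate oxidase and peroxidase, pH 7.00 at 22° C, with 0.15 mM ATP, 100 mM KCl, 2 mM MgCl2, 2 mM phosphate and 0.1 mM amplex red (final). Crosslinked S1 titrated empirically for set hydrolysis rate; fluorescence (ex 480/em 615 nm) dose curves fit 4-parameter for IC50.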

T1 sequence (P02607 2-151): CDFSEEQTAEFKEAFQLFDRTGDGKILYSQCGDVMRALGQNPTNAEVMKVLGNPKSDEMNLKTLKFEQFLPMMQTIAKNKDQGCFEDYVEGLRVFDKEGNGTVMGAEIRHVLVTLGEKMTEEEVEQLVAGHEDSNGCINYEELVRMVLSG
T1 sequence (P10587 84-789): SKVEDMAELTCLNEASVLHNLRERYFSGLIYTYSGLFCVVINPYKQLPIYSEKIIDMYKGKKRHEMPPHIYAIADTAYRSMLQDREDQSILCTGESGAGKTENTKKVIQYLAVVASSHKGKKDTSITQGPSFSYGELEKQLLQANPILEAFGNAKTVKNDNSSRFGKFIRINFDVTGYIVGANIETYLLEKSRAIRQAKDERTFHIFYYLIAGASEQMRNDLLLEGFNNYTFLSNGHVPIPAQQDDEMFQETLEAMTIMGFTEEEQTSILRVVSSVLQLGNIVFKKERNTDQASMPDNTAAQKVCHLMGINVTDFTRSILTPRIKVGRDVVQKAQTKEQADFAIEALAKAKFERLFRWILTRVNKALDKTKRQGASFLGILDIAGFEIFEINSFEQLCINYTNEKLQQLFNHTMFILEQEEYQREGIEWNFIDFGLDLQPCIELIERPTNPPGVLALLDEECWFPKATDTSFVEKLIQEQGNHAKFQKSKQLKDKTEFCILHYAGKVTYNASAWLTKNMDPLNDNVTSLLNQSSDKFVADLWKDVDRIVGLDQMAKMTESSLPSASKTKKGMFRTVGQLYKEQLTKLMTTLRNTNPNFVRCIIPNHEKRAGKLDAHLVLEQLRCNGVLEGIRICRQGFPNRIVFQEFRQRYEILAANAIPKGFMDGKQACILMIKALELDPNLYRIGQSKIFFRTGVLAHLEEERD

Compound | pIC50
CC(C)(C)OC(=O)NCCn1nccc1CNC(=O)c1ccc(-c2ccccc2C#N)nc1NCCc1cccc(F)c1 [N-[(1-{2-[(tert-butoxy)carbonylamino]ethyl}pyrazol-5-yl)methyl](6-(2-cyanophenyl)-2-{[2-(3-fluorophenyl)ethyl]amino}(3-pyridyl))carboxamide] | 5.66
Cn1cc(-c2nc(NCCc3cccc(F)c3)c(C(=O)NCc3cccnc3CNC(=O)OC(C)(C)C)cc2C#N)cn1 [N-[(2-{[(tert-butoxy)carbonylamino]methyl}(3-pyridyl))methyl](5-cyano-2-{[2-(3-fluorophenyl)ethyl]amino}-6-(1-methylpyrazol-4-yl)(3-pyridyl))carboxamide] | 6.12
CC(C)(C)OC(=O)NCCCC(=O)N1CCC[C@@H]1CNC(=O)c1cc(C#N)c(-c2cn[nH]c2)nc1NCCc1cccc(F)c1 [N-[((2R)-1-{4-[(tert-butoxy)carbonylamino]butanoyl}pyrrolidin-2-yl)methyl](5-cyano-2-{[2-(3-fluorophenyl)ethyl]amino}-6-pyrazol-4-yl(3-pyridyl))carboxamide] | 5.47
CC(C)(C)OC(=O)NCCCN1C(=O)CC[C@@H]1CNC(=O)c1ccc(-c2ccccc2C#N)nc1NCCc1cccc(F)c1 [N-[((2R)-1-{3-[(tert-butoxy)carbonylamino]propyl}-5-oxopyrrolidin-2-yl)methyl](6-(2-cyanophenyl)-2-{[2-(3-fluorophenyl)ethyl]amino}(3-pyridyl))carboxamide] | 6.29
C[C@H](CNC(=O)c1cc(F)c(-c2cnn(C)c2)nc1NCCc1cccc(F)c1)NC(=O)CO | 6.71
N#Cc1ccccc1-c1ccc(C(=O)NC[C@H]2CCC(=O)N2CCN)c(NCCc2cccc(F)c2)n1 [N-{[(2R)-1-(2-aminoethyl)-5-oxopyrrolidin-2-yl]methyl}(6-(2-cyanophenyl)-2-{[2-(3-fluorophenyl)ethyl]amino}(3-pyridyl))carboxamide] | 6.96
C[C@@H](CNC(=O)CN)CNC(=O)c1cc(F)c(-c2cnn(C)c2)nc1NCCc1cccc(F)c1 [N-{(2R)-3-[(5-fluoro-2-{[2-(3-fluorophenyl)ethyl]amino}-6-(1-methylpyrazol-4-yl)(3-pyridyl))carbonylamino]-2-methylpropyl}-2-aminoacetamide] | 6.82
CN(C)C(n1cc(-c2ccc(C(=O)NC[C@H]3CCC(=O)N3CCCN)c(NCCc3cccc(F)c3)n2)cn1)=[N+](C)C | 5.67
O=C(NCC(CO)CO)c1cc(F)c(-c2cn[nH]c2)nc1NCCc1cccc(F)c1 [(5-fluoro-2-{[2-(3-fluorophenyl)ethyl]amino}-6-pyrazol-4-yl(3-pyridyl))-N-[3-hydroxy-2-(hydroxymethyl)propyl]carboxamide] | 6.67
N[C@@H](CO)CNC(=O)c1cc(F)c(-c2cn[nH]c2)nc1NCCc1cccc(F)c1 [N-((2R)-2-amino-3-hydroxypropyl)(5-fluoro-2-{[2-(3-fluorophenyl)ethyl]amino}-6-pyrazol-4-yl(3-pyridyl))carboxamide] | 5.74
O=C(NC[C@H]1CCCN1C(=O)CO)c1ccc(-c2cn[nH]c2)nc1NCCc1cccc(F)c1 [N-{[(2R)-1-(2-hydroxyacetyl)pyrrolidin-2-yl]methyl}(2-{[2-(3-fluorophenyl)ethyl]amino}-6-pyrazol-4-yl(3-pyridyl))carboxamide] | 5.93
C[C@H](CNC(=O)c1cc(F)c(-c2cnn(C)c2)nc1NCCc1cccc(F)c1)NC(=O)[C@@H](N)CO | 6.94
O=C1CNC[C@@H](CNC(=O)c2ccc(-c3cc[nH]n3)nc2NCCc2cccc(F)c2)N1 [N-[((2S)-6-oxopiperazin-2-yl)methyl](2-{[2-(3-fluorophenyl)ethyl]amino}-6-pyrazol-3-yl(3-pyridyl))carboxamide] | 5.19
C[C@@H](CNC(=O)c1ccc(-c2ccccc2C#N)nc1NCCc1cccc(F)c1)N(C)S(C)(=O)=O [N-{(2S)-2-[methyl(methylsulfonyl)amino]propyl}(6-(2-cyanophenyl)-2-{[2-(3-fluorophenyl)ethyl]amino}(3-pyridyl))carboxamide] | 5.23
CC(=O)N1CCN(C)C[C@@H]1CNC(=O)c1ccc(-c2ccccc2C#N)nc1NCCc1cccc(F)c1 [N-[((2S)-1-acetyl-4-methylpiperazin-2-yl)methyl](6-(2-cyanophenyl)-2-{[2-(3-fluorophenyl)ethyl]amino}(3-pyridyl))carboxamide] | 5.17
NCCCC(=O)N1CCCC1CNC(=O)c1cc(F)c(-c2cc[nH]n2)nc1NCCc1cccc(F)c1 [N-{[(2R)-1-(4-aminobutanoyl)pyrrolidin-2-yl]methyl}(5-fluoro-2-{[2-(3-fluorophenyl)ethyl]amino}-6-pyrazol-3-yl(3-pyridyl))carboxamide] | 6.77
CN(CCNC(=O)c1ccc(-c2ccccc2C#N)nc1NCCc1cccc(F)c1)C(=O)CNC(=O)OC(C)(C)C [2-[(tert-butoxy)carbonylamino]-N-{2-[(6-(2-cyanophenyl)-2-{[2-(3-fluorophenyl)ethyl]amino}(3-pyridyl))carbonylamino]ethyl}-N-methylacetamide] | 4.82
N#Cc1ccccc1-c1ccc(C(=O)NCCCN2C(=O)CC[C@H]2CN=[N+]=[N-])c(NCCc2cccc(F)c2)n1 | 4.78

Further lines, results first:

pIC50 | Compound
4.30 | O=C(NCc1cccnc1)c1ccc(-c2cnoc2)nc1NCCc1cccc(F)c1 [(2-{[2-(3-fluorophenyl)ethyl]amino}-6-isoxazol-4-yl(3-pyridyl))-N-(3-pyridylmethyl)carboxamide]
6.55 | O=C(NCc1cccnc1)c1ccc(-c2cccc(CO)c2)nc1NCCc1cccc(F)c1 [(2-{[2-(3-fluorophenyl)ethyl]amino}-6-[3-(hydroxymethyl)phenyl](3-pyridyl))-N-(3-pyridylmethyl)carboxamide]
4.94 | NC(=O)c1cccc(CCNc2nc(-c3ccccc3)ccc2C(=O)NCc2cccnc2)c1 [3-[2-({6-phenyl-3-[N-(3-pyridylmethyl)carbamoyl]-2-pyridyl}amino)ethyl]benzamide]
5.49 | N#Cc1ccccc1-c1ccc(C(=O)N[C@H]2CCNC2=O)c(NCCc2cccc(F)c2)n1 [N-((3S)-2-oxopyrrolidin-3-yl)(6-(2-cyanophenyl)-2-{[2-(3-fluorophenyl)ethyl]amino}(3-pyridyl))carboxamide]
6.27 | N#Cc1ccccc1-c1ccc(C(=O)N[C@H](CN)C(N)=O)c(NCCc2cccc(F)c2)n1 [N-((1R)-2-amino-1-carbamoylethyl)(6-(2-cyanophenyl)-2-{[2-(3-fluorophenyl)ethyl]amino}(3-pyridyl))carboxamide]
7.33 | Cn1cc(-c2ccc(C(=O)NCc3cccnc3)c(NCCc3cccc(F)c3)n2)c(C#N)n1 [(6-(3-cyano-1-methylpyrazol-4-yl)-2-{[2-(3-fluorophenyl)ethyl]amino}(3-pyridyl))-N-(3-pyridylmethyl)carboxamide]
5.17 | CNC(=O)c1ccc(-c2ccccc2)nc1NCCc1cccc(C)c1 [N-methyl(2-{[2-(3-methylphenyl)ethyl]amino}-6-phenyl(3-pyridyl))carboxamide]
5.97 | COc1ccc(-c2ccc(C(=O)NCc3cccnc3)c(NCCc3ccccn3)n2)cc1 [{6-(4-methoxyphenyl)-2-[(2-(2-pyridyl)ethyl)amino](3-pyridyl)}-N-(3-pyridylmethyl)carboxamide]
5.91 | N#Cc1ccccc1-c1ccc(C(=O)NCCCCCCN)c(NCCc2cccc(F)c2)n1 [N-(6-aminohexyl)(6-(2-cyanophenyl)-2-{[2-(3-fluorophenyl)ethyl]amino}(3-pyridyl))carboxamide]
6.20 | NCCn1nccc1CNC(=O)c1ccc(-c2cc[nH]n2)nc1NCCc1cccc(F)c1 [N-{[1-(2-aminoethyl)pyrazol-5-yl]methyl}(2-{[2-(3-fluorophenyl)ethyl]amino}-6-pyrazol-3-yl(3-pyridyl))carboxamide]
6.57 | COc1cccc(CCNc2nc(-c3ccccc3)ccc2C(=O)NCc2cccnc2)c1 [(2-{[2-(3-methoxyphenyl)ethyl]amino}-6-phenyl(3-pyridyl))-N-(3-pyridylmethyl)carboxamide]
4.97 | CC(=O)N1CCC[C@@H](CNC(=O)c2ccc(-c3ccccc3C#N)nc2NCCc2cccc(F)c2)C1 [N-[((3S)-1-acetyl(3-piperidyl))methyl](6-(2-cyanophenyl)-2-{[2-(3-fluorophenyl)ethyl]amino}(3-pyridyl))carboxamide]
7.18 | NCc1ncccc1CNC(=O)c1cc(F)c(-c2ccccn2)nc1NCCc1cccc(F)c1 [N-{[2-(aminomethyl)(3-pyridyl)]methyl}(5-fluoro-2-{[2-(3-fluorophenyl)ethyl]amino}-6-(2-pyridyl)(3-pyridyl))carboxamide]
5.23 | Cc1n[nH]c(C)c1CCNc1nc(-c2ccccc2)ccc1C(=O)NCc1cccnc1 [(2-{[2-(3,5-dimethylpyrazol-4-yl)ethyl]amino}-6-phenyl(3-pyridyl))-N-(3-pyridylmethyl)carboxamide]
5.37 | CN(C)CCNC(=O)c1ccc(-c2ccccc2C#N)nc1NCCc1cccc(F)c1 [N-[2-(dimethylamino)ethyl](6-(2-cyanophenyl)-2-{[2-(3-fluorophenyl)ethyl]amino}(3-pyridyl))carboxamide]
6.60 | NCc1cccc(CCNC(=O)c2ccc(-c3ccccc3)nc2NCCc2cccc(F)c2)n1 [N-{2-[6-(aminomethyl)(2-pyridyl)]ethyl}(2-{[2-(3-fluorophenyl)ethyl]amino}-6-phenyl(3-pyridyl))carboxamide]
6.57 | N#Cc1ccccc1-c1ccc(C(=O)NCC2CCN(C(=O)CCN)C2)c(NCCc2cccc(F)c2)n1 (stereo not drawn) [N-{[1-(3-aminopropanoyl)pyrrolidin-3-yl]methyl}(6-(2-cyanophenyl)-2-{[2-(3-fluorophenyl)ethyl]amino}(3-pyridyl))carboxamide]
4.69 | CS(=O)(=O)N1CCCC(CNC(=O)c2ccc(-c3ccccc3)nc2NCCc2ccccn2)C1 (stereo not drawn) [N-{[1-(methylsulfonyl)(3-piperidyl)]methyl}{6-phenyl-2-[(2-(2-pyridyl)ethyl)amino](3-pyridyl)}carboxamide]
